# Experimental data taken from US20210361628A1, “2-OXOTHIAZOLE COMPOSITIONS FOR TREATMENT OF FIBROTIC DISEASE” (Avexxin AS, priority 2018, published 2021).
# pIC50: −log10 of the molar value.
# How the values were obtained:
# [1] = system: α-SMA mRNA in RMC (rat mesangial cells); test: TGF-β1 induced α-SMA mRNA expression in RMC mesangial cell line (qRT-PCR); format: cell-based; conditions: 5 ng/ml TGF-β1 for 24 h, not significant
# Protocol: (§1) RMC (rat mesangial cells, ATCC® CRL-2573™) were maintained in DMEM with 4500 mg/L glucose (Sigma), 15% FBS, L-glutamine, and 0.4 mg/ml G418. For experiments, 3×10^5 cells/well were seeded in 6-well plates. After five days, post-confluent cells were serum starved for 24 h. They were then pre-incubated with inhibitors for 90 min, before they were treated with 5 ng/ml TGF-β1 for 24 h.
# (§2) Total RNA was isolated using the RNeasy Mini Kit (Qiagen). cDNA synthesis was performed with 1 μg total RNA in 20 μl reaction of QuantiTect Reverse Transcription Kit (Qiagen). After synthesis, cDNA was diluted 1:6 with RNase-free water. qRT-PCR was performed with LightCycler 480 SYBR Green I Master (Roche), and the qRT-PCR analyses were carried out using the Lightcycler 96 system (Roche).
# [2] = system: α-SMA mRNA in NRK-49F cells; test: TGF-β1 induced α-SMA mRNA expression in NRK-49F cells (qRT-PCR); format: cell-based, rat; conditions: 5 μM, 10 ng/ml TGF-β1 for 24 h
# Protocol: NRK-49F (normal rat kidney fibroblasts, ATCC® CRL-1570™) were maintained in DMEM with 4500 mg/L glucose, 5% FBS, L-glutamine, and gentamicin. For experiments, 3×10^5 cells/well were seeded in 6-well plates. After three days, post-confluent cells were serum starved for 24 h. They were then pre-incubated with inhibitors for 90 min, before they were treated with 10 ng/ml TGF-β1 for 24 h (mRNA-expression).
# as §2
# [3] = system: Ptgs2 mRNA in RMC (rat mesangial cells); test: TGF-β1 induced Ptgs2 mRNA expression in RMC (qRT-PCR); format: cell-based; conditions: 5 μM, 5 ng/ml TGF-β1 for 24 h
# Protocol: as §1, §2
# [4] = system: PGE2 production in human PBMC; test: LPS-induced PGE2 production in human PBMC (EIA); format: cell-based; conditions: LPS 10 ng/mL, 72 hrs
# Protocol: Blood was recruited from healthy donors at St. Olavs Hospital HF, the Bloodbank (project approved by Regional Ethical Committee of Mid-Norway; #2016/553). Peripheral blood mononuclear cells (PBMC) were isolated using SepMate™ separation tubes with LymphoPrep density gradient medium according to the STEMCELL Technology recommendations. For experiments, 1×10^6 cells/well/1 mL RPMI medium supplemented with 5% FBS, 0.3 mg/ml glutamine and 0.1 mg/ml gentamicin with- or without inhibitor. Treatments were added 2 hours prior to the addition of lipopolysaccharides as a potent inducer of inflammation (LPS from E. coli 026:B6 γ-irradiated, Sigma-Aldrich, #L2654). Following treatment (72 hrs., 37° C., 5% CO2), the cell suspensions were centrifuged to isolate the supernatant from the cell fraction. Samples were stored at −80° C. until analysis.
# PBMC supernatants were analyzed by enzyme-linked immunosorbent assay (EIA) for PGE2 (Cayman #514010), according to the manufacturers protocols. PBMC supernatants were assayed at dilutions of 1:100, except supernatants from non-LPS treated PBMC that were assayed undiluted in all assays. Supernatants were hybridized over-night incubation, enzymatic conversion of substrate were read at OD420 nm. Data were processed using a 4-parameter logistic fit model.
# [5] = system: PGE2 in rat renal mesangial cells; test: IL-1 induced PGE2 in rat renal mesangial cells (EIA); format: cell-based; conditions: Mesangial cell, IL-1 stimulation
# Protocol: Cell culture of rat renal mesangial cells were isolated, characterized and cultured as previously described (Pfeilschifter eteil., e1984).84ERLINK “htmesangial cells in 24-well plates were pretreated for 90library.wiley.com/doi/full/10.1111/Compound A before stimulation in a volume of 0.5 mL with IL-1eforenM, Cell Concept GmbH) to induce PGE2Hn in a volume of 0.5 mL with ILcom/doi/full^0C, 5% CO2), the cell suspensions were centrifuged to isolate the supernatant from the cell fraction. Samples were stored at −80° C. until analysis.
# Rat mesangial cell supernatants were analyzed by EIA for PGE2 (Assay Designs, BIOTREND Chemikalien GmbH), according to the manufacturers protocols. Data were calculated as pg of PGE2 per 1.3×10^5 cells which was the cell number per well.
# [6] = system: Ptgs2 mRNA in MRC-5 cells; test: TGF-β1 induced Ptgs2 mRNA expression in MRC-5 cells (qRT-PCR); format: cell-based, human; conditions: 5 μM, 2 ng/ml TGF-β1 for 24 h
# Protocol: MRC-5 (human lung fibroblast, ATCC® CCL-171™) were maintained in MEM with 10% FBS, L-glutamine, and gentamicin. For experiments, 1×10^5 cells/well were seeded in 6-well plates. After two days, pre-confluent cells were serum starved for 24 h. They were then pre-incubated with inhibitors for 90 min, before they were treated with 2 ng/ml TGF-β1 for 24 h.
# as §2
# [7] = read-out: estimated IC50 of PGE2 inhibition
structure (smiles),measurement,setting,value
CCCCCCCOc1ccc(OCC(=O)c2nc(C(=O)OC)cs2)cc1 [Compound A],reduction of α-SMA mRNA expression,[1],around 35%
same,inhibition of TGF-β1 induced expression of α-SMA mRNA,[2],50%
same,Ptgs2 mRNA levels,[3],seem to reduce Ptgs2 mRNA levels
same,PGE2 production,"[4]; 10 μM (highest dose), LPS alone 18185+/−11200 pg/mL",510 ± 406 pg/mL
same,pIC50,[4]; [7],6.36
same,inhibition at 10 µM,[5]; 10 μM,65%
same,pIC50,[5]; [7],6.05
same,Ptgs2 expression,[6],reduced Ptgs2 expression
